Assay results published in US3954793A, “1-(2-Propynyl)-1 H-indazole compounds” (priority 1973, dated 1976).

Experiments:
[1] = system: Swiss albino, white male mice; assay: acute toxicity and synergism of acute toxicity in mice; type: in vivo; conditions: for number of mice dead, with Dimetilan: 48 hours; for number of mice dead, with GS 13005: GS 13005 71 + synergist 213 mg/kg; for number of mice dead, with Methadone: Methadone 32 + synergist 215 mg/kg; for number of mice dead, with Secobarbital: Secobarbital 90 + synergist 215 mg/kg
Description: To determine the acute toxicity of dimetilan alone, eight dosage levels of Dimetilan, ranging from 4 to 32 mg per kg were applied to eight, Swiss, albino, white, male mice per dosage level. The mice weighed approximately 23 to 27 grams and were five to six weeks old. The Dimetilan was administered intraperitoneally in 0.1 ml of corn oil one hour after the administration of the same dose of corn oil alone.
To determine the acute toxicity of the synergist alone, various synergists were administered intraperitoneally at a dose of 1000 mg/kg to each of a group of eight mice. The number of animals dead at the end of 72 hours is reported in the left hand column of Table XXXXVI.
The synergism of the acute toxicity of Dimetilan by various synergists was determined by tests on Swiss albino, white male mice aged five to six weeks and weighing 23 to 27 grams. The synergists and insecticides were dissolved in corn oil and the drugs were dissolved in distilled water. All compounds were administered intraperitoneally by injection in the lower quadrent of the abdomen. The synergist was administered in 0.1 ml of corn oil one hour prior to administration of the insecticide. Eight mice were treated, per dosage, with each synergist. The mice were watched for a minimum of 6 hours while held in a glass jar with bedding individually after intraperitoneal injection of the test solutions. Lethality was noted, the animals were weighed and transferred in cages, and food and water were supplied. Control mice were given 0.1 ml of corn oil at the time of administration of the synergist to the test mice and 0.1 ml corn oil plus Dimetilan at the time of administration of the insecticide to the test mice.
By the same procedure, the synergism of acute toxicity of GS 13005, Secobarbital and 6-dimethylamino-4,4-diphenyl-3-heptanone [Methadone] was determined.

[2] = system: Rutgers A strain house flies; assay: topical application, percent kill after 24 hours, resistant Rutgers A strain; type: in vivo, female); conditions: for percent kill after 24 hours, with GS 13005: GS 13005 1.0 + synergist 5.0 μg/fly; for percent kill after 24 hours, with Mobam: Mobam 0.40 + synergist 2.0 μg/fly
Description: (§1) In Table IX, and in the tables following it, the doses of topically applied insecticides and of synergists unless otherwise noted are expressed as micrograms per fly (μg/fly).
(§2) The synergistic effect of O-(2-propynyl) oximes with mobam was determined from topical application tests on susceptible, female, IN/WHO strain house flies and from tests on resistant, female, Rutgers A strain house flies. The synergist and insecticide were dissolved in ACS Grade acetone in such quantities that a 1.0 μ liter volume applied to the thorax of 3-to-5 day old CO2 -anesthetized female adult house flies contained the desired dosage. After being treated, the flies were confined, 10 to a plaster petri dish, with 3-5 dishes/treament, and held for 24-hr. observation of mortality. Reconstituted skim milk on cotton dental wicks was provided during the holding period. The percent kills after 24 hours are shown in Table X for the IN/WHO strain and Table XI for the Rutgers A strain.
(§3) The synergistic effect of benzyl 2-propynyl ethers with mobam was determined from topical application tests on IN/WHO and Rutgers A strain houseflies, following the procedure of Example 5. The percent kills after 24 hours are shown in Table XIV for the IN/WHO strain and in Table XV for the Rutgers A strain.
The synergistic effect with Diazinon of compounds I-B, I-D, I-F, I-G, I-H and I-I, identified in Tables I and Ia, was determined from topical application tests on IN/WHO strain houseflies and on Rutgers A strain houseflies by the procedure of Example 5. The percent kills after 24 hours are shown in Table XXV for the IN/WHO strain and Table XXVI for the Rutgers A strain.
(§4) The synergistic effect with GS 13005 of compounds I-A, I-B, I-D, I-E, I-F, I-G and I-I was determined from topical application tests to IN/WHO strain, Rutgers A strain and polyvalent CH strain houseflies using the procedures of Example 5. The percent kills of the IN/WHO strain flies after 24 hours are shown in Table XXVIII; of the Rutgers A strain, in Table XXIX; and of the polyvalent CH strain, in Table XXX. The doses of insecticide alone to the CH strain files caused 10-40% mortality.
(§5) The synergistic effect with Diazinon and GS 13005 of various of the benzyl 2-propynyl ethers identified in Tables II and IIa was determined by topical application tests on IN/WHO strain, and Rutgers A strain and polyvalent, resistant, CH strain houseflies using the procedures of Example 5. The percent kills after 24 hours of IN/WHO strain flies are shown in Table XXXI; of Rutgers A strain flies, in Table XXXII; and of CH strain flies, in Table XXXIII. The doses of insecticide alone to the CH strain flies caused 10-40% mortality.
(§6) The synergistic effect on IN/WHO strain flies and Rutgers A strain flies of compound IV-C with GS 13005 and with Diazinon was determined by the topical application procedure of Example 5. The percent kills of IN/WHO strain flies after 24 hours are shown in Tables XXXVI and XXXVII; the percent kills of Rutgers A strain flies are shown in Tables XXXVIII and XXXIX.

[3] = system: IN/WHO strain house flies; assay: topical application, percent kill after 24 hours, susceptible IN/WHO strain; type: in vivo, female); conditions: for percent kill after 24 hours, synergist alone (GS 13005 part of Table XXXI): GS 13005 0, synergist 1 μg/fly; for percent kill after 24 hours, with GS 13005: GS 13005 0.10 + synergist 0.50 μg/fly; for percent kill after 24 hours, with Mobam: Mobam 0.20 + synergist 1 μg/fly; for percent kill after 24 hours, synergist alone: insecticide 0, synergist 1 μg/fly
Description: as §1, §2, §3
The effects of varying the insecticide dose and the synergist-insecticide ratio are further illustrated, with synergist compounds II-D, II-E, II-F and Mobam insecticide, in Tables XVI, XVII and XVIII. […]
The effect on IN/WHO flies of synergist compound IV-C, identified in Table IV, with mobam was determined by the topical application procedure of Example 5. […]
as §4
as §5, with “mortality. […]” for “mortality.”
as §6

male mice = assay: extension of sleeping time of depressant drugs by synergists; type: in vivo, male mice (Swiss albino white); conditions: for Mean Sleeping Time, Noludar / Relative Sleeping Time, Noludar: Noludar 110 mg/kg; for Relative Sleeping Time, Noludar / Relative Sleeping Time, Secobarbital: treated/control; for Mean Sleeping Time, Secobarbital / Relative Sleeping Time, Secobarbital: Secobarbital 37 mg/kg
Description: The selectivity of the synergist compounds of this invention is illustrated by the results of sleeping-time extension tests and of acute toxicity tests on Swiss albino white male mice.
The effect of various synergist compounds on sleeping time of sodium secobarbital [Secobarbital] and of 3,3-diethyl-5-methyl-2,4-dioxypiperidine [Noludar] was determined by administering the drug, with and without synergist, to approximately 38-day old male mice weighing from 25 to 30 grams. Synergists were administered in each of two doses, 74.0 mg/kg (dilution being 2.0 mg/0.1 ml corn oil), and 110.0 mg/kg (dilution 3.0 mg/0.1 ml oil). Secobarbital was administered at a dose of 37.0 mg/kg (dilution 1.0 mg/0.1 ml water). Noludar was administered at a dose of 110.0 mg/kg (dilution 3.0 mg/0.1 ml water). The synergist was administered one hour prior to administration of the Secobarbital or Noludar. Secobarbital and Noludar sleeping times were obtained for both the control (drug only) and the treated (synergist plus drug) mice by noting the time lapse between the administration of the drug and the recovery of the righting reflex, i.e. when the animal regains conciousness and can walk up an inclined wooden tray with coordination. The relative sleeping time (R.S.) was noted. The R.S. is the extended sleeping time in the treated mice (synergist plus drug) divided by the sleeping time in the control mice (drug only). The mean sleeping time for the treated mice and the R.S. are shown on Table XXXXIV for various synergist compounds.

[4] = insecticide 0, synergist 5.0 μg/fly
[5] = synergist 110 mg/kg one hour prior
[6] = synergist 74 mg/kg one hour prior
[7] = Dimetilan 8 + synergist 80 mg/kg i.p., eight mice
[8] = Dimetilan 8 + synergist 240 mg/kg i.p., eight mice

Row | Compound | percent kill after 24 hours, with GS 13005 [2] [%] | percent kill after 24 hours, synergist alone [2, 4] [%] | percent kill after 24 hours, synergist alone (GS 13005 part of Table XXXI) [3] [%] | percent kill after 24 hours, with GS 13005 [3] [%] | percent kill after 24 hours, with Mobam [3] [%] | percent kill after 24 hours, synergist alone [3] [%] | Mean Sleeping Time, Noludar (male mice; [5]) [min] | Relative Sleeping Time, Noludar (male mice; synergist 110 mg/kg) | Mean Sleeping Time, Secobarbital (male mice; [6]) [min] | Relative Sleeping Time, Secobarbital (male mice; synergist 74 mg/kg) | Mean Sleeping Time, Secobarbital (male mice; [5]) [min] | Relative Sleeping Time, Secobarbital (male mice; synergist 110 mg/kg) | number of mice dead, with Dimetilan [1, 7] | number of mice dead, with Dimetilan [1, 8] | other results
1 | CCC(=O)C(CC(C)N(C)C)(c1ccccc1)c1ccccc1 (stereo not shown) [Methadone, 6-dimethylamino-4,4-diphenyl-3-heptanone, reference compound] | – | – | – | – | – | – | – | – | – | – | – | – | – | – | number of mice dead, control (Methadone alone) ([1]; Methadone (32 mg/kg) in 0.1 ml corn oil): 2
2 | C#CCOCc1ccc(Cl)cc1[N+](=O)[O-] [II-J] | 100 | 0 | 13 | 99 | 100 | 13 | 70 | 2.2 | 27 | 1.0 | 30 | 1.4 | 0 | 4 | percent kill after 24 hours, with Mobam [2]: 70%; number of mice dead, with GS 13005 [1]: 6; number of mice dead, with Methadone [1]: 3; number of mice dead, with Secobarbital [1]: 0
3 | C#CCOCc1ccc(Cl)c([N+](=O)[O-])c1 [II-M] | 63 | 0 | 10 | 79 | 90 | 10 | 47 | 2.1 | 29 | 1.0 | 47 | 2 | 0 | 3 | –
4 | C#CCOCc1cccc([N+](=O)[O-])c1Cl [II-L] | 83 | 0 | 3 | 97 | 89 | 3 | 56 | 1.8 | 31 | 1.0 | 42 | 1.8 | 0 | 5 | percent kill after 24 hours, with Mobam [2]: 52%
5 | CNC(=O)Oc1ccccc1OC(C)C [Baygon, o-isopropoxyphenyl methylcarbamate, reference compound] | – | – | – | – | – | – | – | – | – | – | – | – | – | – | 24 hour percent mortality, insecticide alone ([3]; insecticide 0.125 μg/fly (Table XXI)): 0%
6 | C=CCC1(C(C)CCC)C(=O)NC(=O)NC1=O (stereo not shown) [Secobarbital, sodium secobarbital, reference compound] | – | – | – | – | – | – | – | – | – | – | – | – | – | – | number of mice dead, control (Secobarbital alone) ([1]; Secobarbital (90 mg/kg) in 0.1 ml corn oil): 0
7 | C#CCON=Cc1ccc(Cl)cc1 [I-H] | – | – | – | – | – | 0 | – | – | – | – | – | – | – | – | percent kill after 24 hours, with Diazinon ([2]; Diazinon 1.5 + synergist 7.5 μg/fly): 80%; percent kill after 24 hours, with Diazinon ([2]; Diazinon 3.0 + synergist 15 μg/fly): 100%; percent kill after 24 hours, synergist alone ([2]; insecticide 0, synergist 7.5 μg/fly): 0%; percent kill after 24 hours, synergist alone ([2]; insecticide 0, synergist 15 μg/fly): 0%; percent kill after 24 hours, with Diazinon ([3]; Diazinon 0.02 + synergist 0.10 μg/fly): 47%
8 | COP(=O)(OC)OC(=CCl)c1cc(Cl)c(Cl)cc1Cl [Gardona, 2-chloro-1-(2,4,5-trichlorophenyl) vinyl dimethyl phosphate, reference compound] | – | – | – | – | – | – | – | – | – | – | – | – | – | – | 24 hour percent mortality, Gardona alone ([3]; Gardona 0.031 μg/fly): 13%; 24 hour percent mortality, Gardona alone ([3]; Gardona 0.063 μg/fly): 73%; 24 hour percent mortality, Gardona alone ([3]; Gardona 0.125 μg/fly): 100%
9 | CCOCCOCCOC(C)Oc1ccc2c(c1)OCO2 (stereo not shown) [Sesoxane, reference compound] | – | – | – | – | – | – | – | 3.1 | – | 6.1 | – | 8.3 | 8 | 8 | number of mice dead, with GS 13005 [1]: 0; number of mice dead, with Methadone [1]: 5; number of mice dead, with Secobarbital [1]: 6; number of mice dead, synergist alone ([1]; synergist 1000 mg/kg i.p., Dimetilan 0, 72 hours, eight mice): 1
10 | COP(=O)(OC)O/C(C)=C/C(=O)N(C)C [Bidrin, 3-hydroxy-N,N-dimethyl-cis-crotonamide, dimethyl phosphate, reference compound] | – | – | – | – | – | – | – | – | – | – | – | – | – | – | 24 hour percent mortality, Bidrin alone ([3]; Bidrin 0.063 μg/fly): 0%; 24 hour percent mortality, Bidrin alone ([3]; Bidrin 0.13 μg/fly): 0%
